These results are taken from ChEMBL document CHEMBL4007490, “New hydrazine and hydrazide quinoxaline 1,4-di-N-oxide derivatives: In silico ADMET, antiplasmodial and antileishmanial activity” (Bioorg Med Chem Lett, 2017).

One may read the IC50 as the concentration needed to halve the response being measured. As a reminder, the CC50 is the concentration at which the toxic effect on the cells reaches its halfway point.

The nature of series [1]: Selectivity index, ratio of CC50 for human HepG2A16 cells to IC50 for chloroquine/cycloguanil-resistant Plasmodium falciparum FCR3. Type of series: toxicity. The following applies: read-out: Ratio CC50/IC50.
Series [2] has as its system Plasmodium falciparum. The series can be described thus: Antiplasmodial activity against chloroquine/cycloguanil-resistant Plasmodium falciparum FCR3 by [3H]-hypoxanthine incorporation assay. The following applies: FCR-3/Gambia. Type of series: functional.
Series [3] can be described thus: Cytotoxicity against human HepG2A16 cells after 48 hrs by MTT assay. Type of series: cell-based. Background: Formazan colour is commonly taken as a measure of viable cells.
Series [4] deals with Plasmodium falciparum. As to the kind of experiment: Antiplasmodial activity against chloroquine-sensitive/sulfadoxine-resistant Plasmodium falciparum 3D7 by [3H]-hypoxanthine incorporation assay. Type of series: functional.
Series [5] has as its system Leishmania infantum. As to the kind of experiment: Antileishmanial activity against axenic amastigote form of Leishmania infantum MHOM/MA/67/ITMAP-263 assessed as parasite growth inhibition after 72 hrs by MTT assay. Type of series: functional. The following applies: MHOM/MA/67/ITMAP-263, 72 h.
Series [6] in a line: Selectivity index, ratio of CC50 for human HepG2A16 cells to IC50 for axenic amastigote form of Leishmania infantum MHOM/MA/67/ITMAP-263. Type of series: toxicity. The following applies: read-out: Ratio CC50/IC50.

Molecules are shown by their SMILES.

`Cc1c(/C=N/Nc2c(Cl)cc(Cl)cc2Cl)[n+]([O-])c2cc(Cl)ccc2[n+]1[O-]`: the values for the selectivity ratio in series [1] and in series [6] were 0.2 and less than 0.12, respectively. Further, the values for the IC50 in series [2], in series [4] and in series [5] were 61.1 µM, more than 100 µM and more than 100 µM, respectively. In series [3], this molecule gave a CC50 at 48 h of 12.2 µM.

Take `Cc1c(/C=N/Nc2ccc(C(=O)O)cc2)[n+]([O-])c2ccccc2[n+]1[O-]`: the selectivity ratio in series [1] and in series [6] was less than 3.72 throughout. Also, the IC50 in series [2], in series [4] and in series [5] was more than 100 µM in each case. Besides, in series [3], it took 373 µM to reach half-maximal cytotoxicity (CC50 at 48 h).

With `Cc1c(/C=N/NC(=O)c2ccccc2)[n+]([O-])c2ccccc2[n+]1[O-]`, the selectivity ratio in series [1] is 1.11; in series [6], 0.68. Besides, the IC50 was 36.5 µM in series [2], 55.7 µM in series [4] and 59.1 µM in series [5]. The same molecule displayed a CC50 at 48 h in series [3] of 40.7 µM.

With `COc1ccc2c(c1)[n+]([O-])c(/C=N/Nc1ccnc3cc(Cl)ccc13)c(C)[n+]2[O-]`, the selectivity ratio in series [1] is more than 95.3. Also, the IC50 was 2.56 µM in series [2], 1.4 µM in series [4] and more than 100 µM in series [5]. This molecule returned a CC50 at 48 h in series [3] of more than 244 µM.

Turning to `COc1ccc(C(=O)N/N=C/c2c(C)[n+]([O-])c3ccccc3[n+]2[O-])cc1`, the selectivity ratio in series [1] was 2.22; in series [6], less than 0.66. Further, the IC50 in series [2] is 30 µM; in series [4], 27.8 µM; in series [5], more than 100 µM. In addition, in series [3], the CC50 at 48 h turned out to be 66.6 µM.

Regarding `Cc1c(C)[n+]([O-])c2cc(Cl)ccc2[n+]1[O-]`, the selectivity ratio in series [1] and in series [6] was less than 2.28 in each case. The concentration for half-maximal inhibition (IC50) in series [2], in series [4] and in series [5] was more than 100 µM in each case. The molecule also yielded a CC50 at 48 h in series [3] of 228 µM.

In the case of `COc1ccc2c(c1)[n+]([O-])c(C)c(C)[n+]2[O-]`, the selectivity ratio in series [1] and in series [6] was less than 7.44 in each case. For the same molecule, the IC50 in series [2], in series [4] and in series [5] was more than 100 µM in each case. Also, the cytotoxic concentration (CC50) at 48 h in series [3] came to 744 µM.

As for `Cc1c(C)[n+]([O-])c2ccccc2[n+]1[O-]`, the selectivity ratio in series [1] and in series [6] was less than 3.21 throughout. The IC50 in series [2], in series [4] and in series [5] was more than 100 µM in each case. The CC50 at 48 h in series [3] came to 322 µM.

In the case of `CC(=O)N/N=C/c1c(C)[n+]([O-])c2ccccc2[n+]1[O-]`, the selectivity ratio in series [1] and in series [6] was less than 0.87 each time. Also, the IC50 in series [2], in series [4] and in series [5] was more than 100 µM each time. In series [3], this molecule came in with a 50% cytotoxic concentration (CC50) at 48 h of 87.2 µM.

Consider `Cc1c(/C=N/Nc2ccccc2)[n+]([O-])c2ccccc2[n+]1[O-]`, for which the selectivity ratio in series [1] and in series [6] was less than 0.35 each time. Also, the IC50 in series [2], in series [4] and in series [5] was more than 100 µM throughout. In series [3], this molecule displayed a CC50 at 48 h of 35.4 µM.

Turning to `C[C@@H]1[C@H](O)[C@@H](C)/C=C/C=C/C=C/C=C/C=C/C=C/C=C/[C@H](O[C@@H]2O[C@H](C)[C@@H](O)[C@H](N)[C@@H]2O)C[C@@H]2O[C@](O)(C[C@@H](O)C[C@@H](O)[C@H](O)CC[C@@H](O)C[C@@H](O)CC(=O)O[C@H]1C)C[C@H](O)[C@H]2C(=O)O` [AMPHOTERICIN B], the IC50 in series [5] amounted to 0.05 µM.

Take `Cc1c(/C=N/Nc2ccc(Cl)c(Cl)c2)[n+]([O-])c2ccccc2[n+]1[O-]`: the selectivity ratio is 6.32 in series [1] and less than 5.5 in series [6]. In addition, the results for the concentration for half-maximal inhibition (IC50) in series [2], in series [4] and in series [5] were 87.1 µM, 76.7 µM and more than 100 µM, respectively. For the same molecule, in series [3], the CC50 at 48 h was 551 µM.

On to `Cc1c(/C=N/NC(=O)c2ccncc2)[n+]([O-])c2ccccc2[n+]1[O-]`, for which the selectivity ratio in series [1] and in series [6] was less than 0.9 throughout. Further, the concentration for half-maximal inhibition (IC50) in series [2], in series [4] and in series [5] was more than 100 µM in each case. Further, in series [3], the midpoint of cytotoxicity, the CC50 at 48 h, lay at 90.9 µM.

`Cc1c(/C=N/NC(=O)c2ccc(Cl)cc2)[n+]([O-])c2ccccc2[n+]1[O-]`: the selectivity ratio was 0.81 in series [1] and 0.54 in series [6]. Further, the IC50 in series [2] is 34.8 µM; in series [4], 54.9 µM; in series [5], 52.3 µM. The CC50 at 48 h in series [3] is 28.3 µM.

As to `COc1ccc2c(c1)[n+]([O-])c(/C=N/Nc1c(Cl)cc(Cl)cc1Cl)c(C)[n+]2[O-]`, the selectivity ratio in series [1] was less than 2.09; in series [6], less than 2.08. In addition, the IC50 in series [2], in series [4] and in series [5] was more than 100 µM throughout. Further, half-maximal cytotoxicity in series [3] (CC50 at 48 h) was put at 209 µM.

As to `Cc1c(/C=N/Nc2cccc(Cl)c2)[n+]([O-])c2ccccc2[n+]1[O-]`, the selectivity ratio in series [1] and in series [6] was less than 0.47 throughout. The IC50 in series [2], in series [4] and in series [5] was more than 100 µM throughout. In series [3], this molecule showed a CC50 at 48 h of 47.3 µM.

Turning to `Cc1c(/C=N/Nc2ccnc3cc(Cl)ccc23)[n+]([O-])c2cc(Cl)ccc2[n+]1[O-]`, the selectivity ratio in series [1] was more than 86.1. For the same molecule, the IC50 in series [2] was 2.8 µM; in series [4], 0.24 µM; in series [5], more than 100 µM. In series [3], the CC50 at 48 h was more than 241 µM.

Turning to `Cc1c(C(F)(F)F)[n+]([O-])c2ccccc2[n+]1[O-]`, the selectivity ratio was 0.42 in series [1] and 0.05 in series [6]. The IC50 in series [2] came out at 4.2 µM; in series [4] it was 7.9 µM; in series [5], 30.5 µM. The cytotoxic concentration (CC50) at 48 h in series [3] amounted to 1.8 µM.

As to `Cc1c(/C=N/Nc2c(Cl)cc(Cl)cc2Cl)[n+]([O-])c2ccccc2[n+]1[O-]`, the selectivity ratio in series [1] and in series [6] was less than 1.24 each time. Moreover, the half-maximal inhibitory concentration (IC50) in series [2], in series [4] and in series [5] was more than 100 µM in each case. Moreover, in series [3], it took 124 µM to reach half-maximal cytotoxicity (CC50 at 48 h).

In the case of `Cc1ccc(S(=O)(=O)N/N=C/c2c(C)[n+]([O-])c3ccccc3[n+]2[O-])cc1`, the selectivity ratio is less than 2.41 in series [1] and 4.51 in series [6]. For the same molecule, the IC50 was more than 100 µM in series [2], 85.3 µM in series [4] and 53.4 µM in series [5]. Also, the midpoint of cytotoxicity in series [3], the CC50 at 48 h, lay at 241 µM.
